Test results as given in article PMC12064818, “A general assay platform to study protein pharmacology using ligand-dependent structural dynamics” (Nature Communications, 2025).
“And” between values parts separate entries of the source, which are not always exact repeats. Equal entries are not always repeated. Where two headings read alike, the source gives them in different places.

Experiments:
B. malayi iPGM-C-HiBiT = B. malayi iPGM-C-HiBiT (Brugia malayi, UniProt Q4VWF8); assay: biochemical
C. elegans iPGM-C-HiBiT = C. elegans iPGM-C-HiBiT (Caenorhabditis elegans, UniProt G5EFZ1); assay: iPGM coupled-enzyme assay, C. elegans iPGM-C-HiBiT; format: biochemical; set-up: cDNA, containing Phe2-Ile539 and the 6xHis tag; His6 (C); made in house; host or cells: E. coli; settings: C. elegans iPGM-C-HiBiT Std 5 nM; ligand […] Std
Chain of C. elegans iPGM-C-HiBiT (G5EFZ1 2-539): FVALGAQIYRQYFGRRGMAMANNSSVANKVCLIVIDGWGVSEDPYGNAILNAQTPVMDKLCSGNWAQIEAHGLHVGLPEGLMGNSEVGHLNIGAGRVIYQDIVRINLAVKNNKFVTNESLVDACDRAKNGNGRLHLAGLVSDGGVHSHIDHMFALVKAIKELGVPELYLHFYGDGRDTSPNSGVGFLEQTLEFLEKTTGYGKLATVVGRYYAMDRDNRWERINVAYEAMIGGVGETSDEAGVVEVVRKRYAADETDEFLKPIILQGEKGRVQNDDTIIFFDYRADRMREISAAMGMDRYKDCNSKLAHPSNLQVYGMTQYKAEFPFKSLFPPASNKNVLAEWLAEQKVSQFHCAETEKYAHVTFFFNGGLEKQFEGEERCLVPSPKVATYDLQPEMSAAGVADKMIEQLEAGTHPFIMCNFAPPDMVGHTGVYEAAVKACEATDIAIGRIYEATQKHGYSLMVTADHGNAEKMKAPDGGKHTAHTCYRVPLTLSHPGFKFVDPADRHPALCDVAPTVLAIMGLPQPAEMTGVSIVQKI
Description: The enzyme activity of C. elegans or B. malayi iPGM-C-HiBiT was measured using the functional coupled-enzyme luminescence end-point output assay for iPGM as previously described[16],[41],[68]. Briefly, the indicated concentration of 4 μL of iPGM-C-HiBiT was dispensed into 1536-well white, high solid base, medium bind plates in a pH 8.0 iPGM assay buffer (30 mM Tris-HCl, 5 mM magnesium sulfate, 20 mM potassium chloride and 0.08% BSA) with the BioRaptr 2. Compounds and controls were added to each plate with a pintool as described in Supplementary Data 8. Enzymes were incubated with peptide for > 20 min at ambient temperature, protected from light. […] Enzyme was at 5 nM final concentration for the standard assay with an estimated KM 3-phosphoglycerate (3PG) substrate concentration of 400 μM. Plates were incubated at ambient temperature for 10 min, protected from light, then measured by a ViewLux plate reader. […] See Supplementary Table 6 for additional details.
Supplementary Table 6. Protocol for Co- factor independent phosphoglycerate mutase (iPGM) coupled-enzyme assay
Supplementary Table 6: Protocol for Co-factor independent phosphoglycerate m utase (iPGM) coupled- enzym e assay […]
No enzym e control (colum n 1) and enzym e solutions (5 nM Bm iPGM-C-HiBiT or Ce iPGM-1 Reagent 4 µLC-HiBiT dialyzed against Zn/Mn final assay concentration) in PGM enzym e buffer; white/solid bottom , m edium bind, high base plates (Greiner), dispensed with BioRaptr 2 […]
in 8-pt 1:6 titration series in duplicate); com pounds transferred to respective colum ns with […]
Test com pounds: m acrocyclic peptides at 5 m M stock concentration in 16-pt, 1:3 titration […]
transferred to respective colum ns with Pintool
3 Incubation 20 m inIncubate enzym e + com pounds at am bient tem p for 20 m in, protected from light 4 Reagent 2 µLSubstrate solution; 0.4 m M final concentration 3PG in coupled-enzym e substrate buffer; dispensed with BioRaptr 2
5 Incubation 5 m inAm bient tem perature, protected from light
6 Reagent 4 µLKinase-Glo Plus reagent (Prom ega) prepared according to m anufacturer’s protocol;
7 Incubation 10 m inRoom tem perature, protected from light
8 Detector ViewLuxRead plate lum inescence (Exposure = 1 sec; Gain = Medium; Speed = Slow; Binning = 2X) […]
in 20% glycerol); Bm iPGM-C-HiBiT enzym e 10 µM stock solution in 20% glycerol.
Coupled-enzym e substrate solution: 30 m M Tris-HCl, pH 8.0; 5 m M MgSO4; 20 m M KCl; 9 m M ADP (3 m M final); 0.1 4 units/µl enolase (Millipore Sigm a, Cat# E6126); 0.15 units/µl pyruvate kinase (from rabbit m uscle, Millipore Sigm a, Cat #

[1] = target: E. coli Lig-N-HiBiT (DNA ligase) (Escherichia coli, UniProt P15042); settings: for SDR assay data: 0.5 nM E. coli Lig-N-HiBiT; for SDR assay data / SDR response: Log [ATP]; for SDR response: replicates
Chain of E. coli Lig-N-HiBiT (DNA ligase) (P15042 2-671): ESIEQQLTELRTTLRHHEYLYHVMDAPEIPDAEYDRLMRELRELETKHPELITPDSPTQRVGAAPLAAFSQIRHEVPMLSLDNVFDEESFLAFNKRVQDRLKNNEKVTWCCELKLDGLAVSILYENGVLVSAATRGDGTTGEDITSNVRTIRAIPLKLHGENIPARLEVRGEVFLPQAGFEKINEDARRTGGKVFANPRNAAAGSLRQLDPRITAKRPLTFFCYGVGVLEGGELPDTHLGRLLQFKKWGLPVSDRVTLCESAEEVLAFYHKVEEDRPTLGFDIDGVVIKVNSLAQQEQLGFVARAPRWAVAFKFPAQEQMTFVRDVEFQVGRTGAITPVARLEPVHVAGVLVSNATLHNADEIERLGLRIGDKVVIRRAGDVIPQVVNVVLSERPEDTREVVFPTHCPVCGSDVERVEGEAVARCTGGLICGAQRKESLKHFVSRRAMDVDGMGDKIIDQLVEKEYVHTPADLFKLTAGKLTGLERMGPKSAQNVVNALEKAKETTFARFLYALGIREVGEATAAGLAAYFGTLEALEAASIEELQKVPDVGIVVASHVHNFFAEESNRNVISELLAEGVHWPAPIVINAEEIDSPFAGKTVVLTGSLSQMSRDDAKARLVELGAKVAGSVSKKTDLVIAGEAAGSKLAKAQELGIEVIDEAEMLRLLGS

[2] = target: T1, ABL1-N-HiBiT kinase domain (Homo sapiens, UniProt P00519); assay: SDR assay, ABL1-N-HiBiT
T1 sequence (P00519 233-500): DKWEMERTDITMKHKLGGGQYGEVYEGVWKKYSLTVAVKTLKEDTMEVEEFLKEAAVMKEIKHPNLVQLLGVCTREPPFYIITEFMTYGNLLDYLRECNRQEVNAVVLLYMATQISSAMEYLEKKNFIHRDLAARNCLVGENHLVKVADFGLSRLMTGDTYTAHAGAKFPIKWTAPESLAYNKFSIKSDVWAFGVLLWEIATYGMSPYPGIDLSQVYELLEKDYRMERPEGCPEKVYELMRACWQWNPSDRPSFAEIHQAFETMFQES

[3] = system: E. coli Lig-C-HiBiT (DNA ligase); assay: SDR assay (aqueous ligand dispense), E. coli Lig-C-HiBiT; settings: for SDR assay data: 1 nM E. coli Lig-C-HiBiT; for SDR assay data / SDR response: Log [ATP]; for SDR response: replicates
[4] = E. coli Lig-N-HiBiT (0.5 nM), ligand 100 µM
[5] = E. coli Lig-C-HiBiT (1.0 nM), ligand 100 µM

Chain of B. malayi iPGM-C-HiBiT (Q4VWF8 2-515): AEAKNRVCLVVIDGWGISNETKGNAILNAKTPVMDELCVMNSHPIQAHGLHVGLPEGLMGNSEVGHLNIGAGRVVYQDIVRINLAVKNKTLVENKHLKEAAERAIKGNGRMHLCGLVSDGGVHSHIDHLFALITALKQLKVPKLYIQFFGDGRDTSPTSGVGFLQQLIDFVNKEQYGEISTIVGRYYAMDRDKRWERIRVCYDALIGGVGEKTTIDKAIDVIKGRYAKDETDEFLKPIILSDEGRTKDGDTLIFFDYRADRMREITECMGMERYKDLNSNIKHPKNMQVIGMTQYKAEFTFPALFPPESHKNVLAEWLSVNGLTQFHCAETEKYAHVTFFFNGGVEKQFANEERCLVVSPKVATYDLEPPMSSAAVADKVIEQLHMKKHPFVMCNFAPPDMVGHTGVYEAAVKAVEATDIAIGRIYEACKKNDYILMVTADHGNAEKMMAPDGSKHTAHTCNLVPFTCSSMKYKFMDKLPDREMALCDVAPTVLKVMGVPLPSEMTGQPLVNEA

## CC(C)C[C@H](NC(=O)[C@H](Cc1ccc(O)cc1)NC(=O)[C@@H]1CSCC(=O)N[C@H](Cc2ccc(O)cc2)C(=O)N[C@@H](CC(=O)O)C(=O)N[C@@H](Cc2ccc(O)cc2)C(=O)N2CCC[C@H]2C(=O)NCC(=O)N[C@@H](CC(=O)O)C(=O)N[C@@H](Cc2ccc(O)cc2)C(=O)N1)C(=O)N[C@@H](Cc1ccc(O)cc1)C(=O)NCC(=O)N[C@H](C(=O)N[C@@H](CS)C(=O)NCC(N)=O)[C@@H](C)O [Ce-2]
B. malayi iPGM-C-HiBiT
  EC50: 0.0407 µM
C. elegans iPGM-C-HiBiT
  Standard assay statistics Ave RLU: 3361.1 RLU
  Standard assay statistics S:B: 8.4
  Standard assay statistics S:N: -16.5
  Standard assay statistics Z’: 0.816

## Nc1ncnc2c1ncn2[C@@H]1O[C@H](COP(=O)(O)OP(=O)(O)OP(=O)(O)O)[C@@H](O)[C@H]1O [ATP]
[1]; M -2.85
  SDR assay data: 49.3 and 51.1 and 44.4
  SDR response: 49.3 and 51.1 and 44.4
[1]; M -3.15
  SDR assay data: 28.9 and 34.6 and 36.9
  SDR response: 28.9 and 34.6 and 36.9
[1]; M -3.45
  SDR assay data: 8.9 and 17.7 and 9.6
  SDR response: 8.9 and 17.7 and 9.6
[1]; E. coli Lig-N-HiBiT
  SDR assay response (in words): weak though reproducible SDR output
[1]; [4]
  SDR assay statistics Ave RLU: 315.5 RLU
  SDR assay statistics S:B: 1.1
  SDR assay statistics S:N: 0.6
  SDR assay statistics Z’: -6.013
[1]; E. coli Lig-N-HiBiT, maximum response
  max resp: 48.3
[1]; M -3.75
  SDR response: 3.6 and 9.8 and 15.1
[1]; M -4.05
  SDR response: 1.5 and 7.7 and 15.7
[1]; M -4.35
  SDR response: 0.051 and 11.3 and 4.7
[1]; M -4.65
  SDR response: 0.8 and 3.9 and 8.7
[1]; M -4.95
  SDR response: -0.949 and 1.5 and 6.8
[1]; M -5.25
  SDR response: -4.0 and 5.1 and 9.7
[1]; M -5.55
  SDR response: -8.9 and 4.7 and 2.7
[1]; M -5.86
  SDR response: -3.0 and -2.8 and 4.9
[1]; M -6.16
  SDR response: -9.9 and -0.326
[1]; M -6.46
  SDR response: -6.9 and 3.7
[1]; M -6.76
  SDR response: -8.7 and 1.0 and 4.2
[2]
  EC50: 24.5 µM
[3]; M -3.15
  SDR assay data: 6.4 and 7.5 and 12.8
  SDR response: 6.4 and 12.8
[3]; M -3.75
  SDR assay data: 7.0 and 9.1
  SDR response: 7.0 and 9.1
[3]; M -4.05
  SDR assay data: 6.9 and 5.8 and 9.6
  SDR response: 6.9 and 5.8 and 9.6
[3]; M -6.76
  SDR assay data: 5.3 and 6.4 and 8.6
  SDR response: 5.3 and 6.4
[3]; [5]
  SDR assay statistics Ave RLU: 2214.0 RLU
  SDR assay statistics S:B: 1.1
[3]; E. coli Lig-C-HiBiT, maximum response
  max resp: 7.8
[3]; M -2.85
  SDR response: 4.8 and 10.7
[3]; M -3.45
  SDR response: 4.5 and 9.6
[3]; M -4.35
  SDR response: 9.4 and 4.6 and 6.2
[3]; M -4.65
  SDR response: 10.2 and 2.5
[3]; M -4.95
  SDR response: 10.5 and 2.6
[3]; M -5.25
  SDR response: 4.4 and 2.6 and 13.4
[3]; M -5.55
  SDR response: 1.7 and 7.1
[3]; M -5.86
  SDR response: 5.9
[3]; M -6.16
  SDR response: 9.8 and 1.1 and 5.3
[3]; M -6.46
  SDR response: 6.3 and 0.236 and 4.6
